Here are results for 34 molecules from ChEMBL document CHEMBL5154760, “Metabolism guided optimization of peptidomimetics as non-covalent proteasome inhibitors for cancer treatment” (Eur J Med Chem, 2022).

pIC50: −log10 of the molar value. The source made the active and inactive calls.

The pIC50 is −log10 of the IC50, conventionally taken in molar units. Higher therefore signals a small IC50. For orientation: half-life means the time needed for the level to fall by half in the phase considered. Broadly, the inhibition in vivo is the percentage by which the read-out fell short of the control.

One data set concerns MV4-11. Put plainly: Antiproliferative activity against human MV4-11 cells after 72 hrs by MTS assay. Type of data set: functional, cell-based. To be noted: MV4-11, 72 h.
For another data set, the system named is RPMI-8226. In words: Antiproliferative activity against human RPMI-8226 cells after 72 hrs by MTS assay. Conditions: RPMI-8226, 72 h. Type of data set: functional, cell-based.
A further data set deals with 20S proteasome. In words: Inhibition of chymotrypsin-like activity of human 20S proteasome using Suc-Leu Leu-Val-Tyr-AMC as substrate preincubated for 15 mins followed by substrate addition measured by fluorescence assay. In kind it is protein-complex assay.
A further data set relates to MM1.S. Put plainly: Antiproliferative activity against human MM1.S cells after 72 hrs by MTS assay. In kind it is functional, cell-based. In general terms: Formazan colour is commonly taken as a measure of viable cells.
A short description of data set [1]: Stability of the compound in mouse blood assessed as half-life measured by LC-MS/MS analysis. Type of data set: ADME, tissue-based.
The target of data set [2] is 20S proteasome (Homo sapiens) (UniProt P49721+P20618+P28074+P28062+P28065+P28072+P25786+P25787+P25788+P25789+P28066+P60900+O14818+Q8TAA3+P40306+A5LHX3+P49720+P28070+Q99436). Put plainly: Inhibition of chymotrypsin-like activity of 20S proteasome in human MM1.S cells assessed as accumulation of polyubiquitinated proteins at 10 to 1000 nM and measured by Western blot analysis. In kind it is cell-based. To be noted: dose 10-1000 nM.

The nature of data set [3]: In vivo inhibition of chymotrypsin-like activity of 20S proteasome in ICR mouse at 5 mg/kg, iv. Type of data set: functional.

Turning to `CC(C)(C)CNC(=O)C[C@H](NC(=O)N1CCC(C(=O)N2CCc3ccccc32)CC1)C(=O)N[C@@H](CCc1ccccc1)C(=O)N[C@@H]1CCCc2ccccc21`, the pIC50 is 8.34 in the data set on MV4-11, 7.70 in the data set on RPMI-8226, 8.14 against 20S proteasome and 7.77 in the data set on MM1.S.
As for `CC(C)(C)CNC(=O)C[C@H](NC(=O)N1CCC(C(=O)N2CCCc3ccccc32)CC1)C(=O)N[C@@H](CCc1ccccc1)C(=O)N[C@@H]1CCCc2ccccc21`, the pIC50 with MV4-11 is 8.31; in the data set on RPMI-8226, 7.62; on 20S proteasome, 8.09; in the data set with MM1.S, 7.91.
As to `CC(C)(C)CNC(=O)C[C@H](NC(=O)N1CCC(C(=O)Nc2nccs2)CC1)C(=O)N[C@@H](CCc1ccccc1)C(=O)NCc1ccccc1Cl`, the half-life in data set [1] was determined as 0.613 h. This molecule had a pIC50 against 20S proteasome of 9.04.
Regarding `CN(C(=O)C1CCN(C(=O)N[C@@H](CC(=O)NCC(C)(C)C)C(=O)N[C@@H](CCc2ccccc2)C(=O)N2CCc3ccccc3C2)CC1)c1cccnc1`, the pIC50 against 20S proteasome was under 5.00.
On 20S proteasome, `C[C@H](NC(=O)[C@H](CCc1ccccc1)NC(=O)[C@H](CC(=O)NCC(C)(C)C)NC(=O)N1CCC(C(=O)Nc2cccnc2)CC1)c1ccccc1` gave a pIC50 of under 5.00.
Same read-out and setting: under `C[C@@H](NC(=O)[C@H](CCc1ccccc1)NC(=O)[C@H](CC(=O)NCC(C)(C)C)NC(=O)N1CCC(C(=O)Nc2cccnc2)CC1)c1ccccc1` stands 7.69; under `C[C@@H](c1ccccc1)N(C)C(=O)[C@H](CCc1ccccc1)NC(=O)[C@H](CC(=O)NCC(C)(C)C)NC(=O)N1CCC(C(=O)Nc2cccnc2)CC1`, under 5.00; under `CN(Cc1ccccc1Cl)C(=O)[C@H](CCc1ccccc1)NC(=O)[C@H](CC(=O)NCC(C)(C)C)NC(=O)N1CCC(C(=O)N(C)c2cccnc2)CC1`, under 5.00.
`CN(C(=O)C1CCN(C(=O)N[C@@H](CC(=O)NCC(C)(C)C)C(=O)N[C@@H](CCc2ccccc2)C(=O)N[C@@H]2CCCc3ccccc32)CC1)c1ccc(F)cc1`: the pIC50 is 8.31 in the data set on MV4-11, 7.58 in the data set with RPMI-8226, 8.03 on 20S proteasome and 7.75 in the data set with MM1.S.
At 20S proteasome, `CN(C(=O)C1CCN(C(=O)N[C@@H](CC(=O)NCC(C)(C)C)C(=O)N[C@@H](CCc2ccccc2)C(=O)N[C@H]2CCCc3ccccc32)CC1)c1cccnc1` showed a pIC50 of under 5.00.
Same read-out and setting: the figure for `COc1ccc(N(C)C(=O)C2CCN(C(=O)N[C@@H](CC(=O)NCC(C)(C)C)C(=O)N[C@@H](CCc3ccccc3)C(=O)N[C@@H]3CCCc4ccccc43)CC2)cc1` is 7.60.
Same read-out and setting: the figure for `CN(Cc1ccccc1Cl)C(=O)[C@H](CCc1ccccc1)NC(=O)[C@H](CC(=O)NCC(C)(C)C)NC(=O)N1CCC(C(=O)Nc2cccnc2)CC1` is 5.76; for `CC(C)(C)CNC(=O)C[C@H](NC(=O)N1CCC(NC(=O)Nc2ccc(Cl)cc2)CC1)C(=O)N[C@@H](CCc1ccccc1)C(=O)N[C@@H]1CCCc2ccccc21` it is 7.38.
For the molecule `CN(C(=O)C1CCN(C(=O)N[C@@H](CC(=O)NCC(C)(C)C)C(=O)N[C@@H](CCc2ccccc2)C(=O)N[C@@H]2CCCc3ccccc32)CC1)c1nccs1`, the half-life in data set [1] was 1.4 h. In addition, in data set [2], the inhibition entry was “Active”. In addition, the pIC50 in the data set on MV4-11 is 8.80; in the data set with RPMI-8226, 7.92; on 20S proteasome it was 8.46; in the data set on MM1.S it was 8.08. Besides, the inhibition in vivo at 5 mg/kg in data set [3] is 50%.
The molecule `CC(C)(C)CNC(=O)C[C@H](NC(=O)N1CCC(C(=O)Nc2cnccn2)CC1)C(=O)N[C@@H](CCc1ccccc1)C(=O)N1CCc2ccccc2C1` gave a pIC50 at 20S proteasome of under 5.00.
Still for that read-out and setting: under `CC(C)(C)CNC(=O)C[C@H](NC(=O)N1CCC(C(=O)Nc2cccnc2)CC1)C(=O)N[C@@H](CCc1ccccc1)C(=O)N1CCc2ccccc2C1` stands 5.80.
In the case of `CN(C(=O)C1CCN(C(=O)N[C@@H](CC(=O)NCC(C)(C)C)C(=O)N[C@@H](CCc2ccccc2)C(=O)N[C@@H]2CCCc3ccccc32)CC1)c1ccccc1`, the half-life in data set [1] worked out at 2.46 h. Also, the inhibition result in data set [2] was “Active”. Moreover, the pIC50 is 8.56 in the data set on MV4-11, 7.68 in the data set with RPMI-8226, 8.03 against 20S proteasome and 8.05 with MM1.S.
Consider `CC(C)C[C@H](NC(=O)[C@H](CCc1ccccc1)NC(=O)CN1CCOCC1)C(=O)N[C@@H](Cc1ccccc1)C(=O)N[C@@H](CC(C)C)C(=O)[C@]1(C)CO1`, for which the pIC50 in the data set with MV4-11 is 9.01; in the data set with RPMI-8226, 8.20; with MM1.S, 8.04.
Turning to `CN(C(=O)c1cccnc1)C1CCN(C(=O)N[C@@H](CC(=O)NCC(C)(C)C)C(=O)N[C@@H](CCc2ccccc2)C(=O)N[C@@H]2CCCc3ccccc32)CC1`, the pIC50 in the data set on MV4-11 is 8.12; in the data set on RPMI-8226, 7.22; against 20S proteasome, 8.29; with MM1.S, 7.47.
Turning to `CCN(C(=O)C1CCN(C(=O)N[C@@H](CC(=O)NCC(C)(C)C)C(=O)N[C@@H](CCc2ccccc2)C(=O)N[C@@H]2CCCc3ccccc32)CC1)c1ccccc1`, the half-life in data set [1] came to 5.49 h. Besides, the inhibition entry in data set [2] is “Active”. Moreover, the negative-log IC50 (pIC50) with MV4-11 was 8.61; in the data set with RPMI-8226 it was 7.82; against 20S proteasome it was 8.08; in the data set on MM1.S it was 8.04. For the same molecule, in data set [3], at 5 mg/kg the inhibition in vivo was 50%.
With `CC(C)(C)CNC(=O)C[C@H](NC(=O)N1CCC(C(=O)Nc2cccnc2)CC1)C(=O)N[C@@H](CCc1ccccc1)C(=O)N[C@@H]1CCCc2ccccc21`, the pIC50 in the data set with MV4-11 is 8.17; in the data set with RPMI-8226, 7.39; against 20S proteasome, 8.39; with MM1.S, 7.45.
On 20S proteasome, `C[C@H](NC(=O)[C@H](CCc1ccccc1)NC(=O)[C@H](CC(=O)NCC(C)(C)C)NC(=O)N1CCC(C(=O)N(C)c2cccnc2)CC1)c1ccccc1` gave a pIC50 of under 5.00.
Take `CC(C)(C)CNC(=O)C[C@H](NC(=O)N1CCN(C(=O)c2cccnc2)CC1)C(=O)N[C@@H](CCc1ccccc1)C(=O)N[C@@H]1CCCc2ccccc21`: the pIC50 at 20S proteasome was 7.60.
Turning to `CC(C)(C)CNC(=O)C[C@H](NC(=O)N1CCC(C(=O)Nc2cccnc2)CC1)C(=O)N[C@@H](CCc1ccccc1)C(=O)N[C@H]1CCCc2ccccc21`, the pIC50 against 20S proteasome is 5.35.
Turning to `CN(C(=O)C1CCN(C(=O)N[C@@H](CC(=O)NCC(C)(C)C)C(=O)N[C@@H](CCc2ccccc2)C(=O)N[C@@H]2CCCc3ccccc32)CC1)c1cccnc1`, the pIC50 was 7.92 with MV4-11, 7.09 in the data set with RPMI-8226, 8.07 at 20S proteasome and 7.27 in the data set with MM1.S.
Molecule `CC(C)(C)CNC(=O)C[C@H](NC(=O)N1CCN(C(=O)Nc2ccc(Cl)cc2)CC1)C(=O)N[C@@H](CCc1ccccc1)C(=O)N[C@@H]1CCCc2ccccc21` showed a pIC50 against 20S proteasome of 7.63.
Same read-out and setting: the figure for `CN(C(=O)C1CCN(C(=O)N[C@@H](CC(=O)NCC(C)(C)C)C(=O)N[C@@H](CCc2ccccc2)C(=O)N[C@@H]2CCCc3ccccc32)CC1)c1ccccc1Cl` is 7.67.
Consider `CN(C(=O)C1CCN(C(=O)N[C@@H](CC(=O)NCC(C)(C)C)C(=O)N[C@@H](CCc2ccccc2)C(=O)N[C@@H]2CCCc3ccccc32)CC1)c1ccc(Cl)cc1`, for which the pIC50 in the data set on MV4-11 is 8.39; with RPMI-8226 it was 7.68; at 20S proteasome, 8.16; in the data set with MM1.S it was 7.57.
On to `C[C@@H](c1ccccc1)N(C)C(=O)[C@H](CCc1ccccc1)NC(=O)[C@H](CC(=O)NCC(C)(C)C)NC(=O)N1CCC(C(=O)N(C)c2cccnc2)CC1`, for which, at 20S proteasome, the pIC50 is under 5.00.
With `C[C@H](c1ccccc1)N(C)C(=O)[C@H](CCc1ccccc1)NC(=O)[C@H](CC(=O)NCC(C)(C)C)NC(=O)N1CCC(C(=O)N(C)c2cccnc2)CC1`, the negative logarithm of the IC50 (pIC50) at 20S proteasome was under 5.00.
Still for that read-out and setting: under `CN(C(=O)C1CCN(C(=O)N[C@@H](CC(=O)NCC(C)(C)C)C(=O)N[C@@H](CCc2ccccc2)C(=O)N[C@@H]2CCCc3ccccc32)CC1)c1cccc(Cl)c1` stands 7.65.
As to `CN(C(=O)C1CCN(C(=O)N[C@@H](CC(=O)NCC(C)(C)C)C(=O)N[C@@H](CCc2ccccc2)C(=O)N[C@@H]2CCCc3ccccc32)CC1)c1ccccn1`, the pIC50 in the data set with MV4-11 is 8.31; with RPMI-8226, 7.47; on 20S proteasome, 8.05; with MM1.S, 7.69.
In turn, `C[C@@H](NC(=O)[C@H](CCc1ccccc1)NC(=O)[C@H](CC(=O)NCC(C)(C)C)NC(=O)N1CCC(C(=O)N(C)c2cccnc2)CC1)c1ccccc1` gave a pIC50 at 20S proteasome of 7.00.
Turning to `CN(C(=O)C1CCN(C(=O)N[C@@H](CC(=O)NCC(C)(C)C)C(=O)N[C@@H](CCc2ccccc2)C(=O)N[C@@H]2CCCc3ccccc32)CC1)c1ccncc1`, the pIC50 in the data set with MV4-11 is 7.29; in the data set on RPMI-8226, under 7.00; at 20S proteasome it was 8.03; with MM1.S, 7.08.
